The text below walks through data of patent publication US6833456B2, “Indolyl-urea derivatives of thienopyridines useful as antiangiogenic agents, and methods for their use” (Agouron Pharmaceuticals, Inc., priority 2002, dated 2004).

For experiment [1], the target named is T1, unphosphorylated VEGF-R2Δ50 (FLVK) (Homo sapiens, UniProt P35968, DEL940-989/E990V).
T1 construct: VEGF-R2Δ50 contains residues 806-939 and 990-1171; made in house; host or cells: baculovirus/insect cell system
Kind of experiment: VEGF-R2 coupled spectrophotometric assay, unphosphorylated construct (FLVK). Format: biochemical. To be noted: for inhibition at 0.05 µM: percent inhibition at 50 nM. The procedure, abridged:
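Human VEGF-R2Δ50 cytosolic kinase (residues 806-939/990-1171, E990V), baculovirus-expressed, unphosphorylated form. PK/LDH-coupled NADH oxidation at 340 nm with 20 mM poly(E4Y1), 3 mM ATP, 60 mM MgCl2, 2 mM MnCl2, 200 mM HEPES pH 7.5, 5-40 nM enzyme; Ki fitted by Morrison equation.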

In experiment [2] the test system is human umbilical vein endothelial cells (HUVEC). Nature of the experiment: HUVEC+VEGF proliferation assay. It counts as cell-based. The settings on record: Homo sapiens, HUVEC, 72 h, VEGF 6 ng/mL, MTT. A digest of the protocol: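 HUVEC (passage 3-4), serum-starved 24 h in F12K + 1% FBS, were pre-treated with compound for 1 h (0.1% DMSO final). They were then stimulated with VEGF at 6 ng/mL final. Proliferation was measured after 72 h by MTT dye reduction (4 h), with absorbance read at 595 nm.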

T1 sequence (P35968 with tags, fused parts or gaps DEL940-989/E990V limits assumed): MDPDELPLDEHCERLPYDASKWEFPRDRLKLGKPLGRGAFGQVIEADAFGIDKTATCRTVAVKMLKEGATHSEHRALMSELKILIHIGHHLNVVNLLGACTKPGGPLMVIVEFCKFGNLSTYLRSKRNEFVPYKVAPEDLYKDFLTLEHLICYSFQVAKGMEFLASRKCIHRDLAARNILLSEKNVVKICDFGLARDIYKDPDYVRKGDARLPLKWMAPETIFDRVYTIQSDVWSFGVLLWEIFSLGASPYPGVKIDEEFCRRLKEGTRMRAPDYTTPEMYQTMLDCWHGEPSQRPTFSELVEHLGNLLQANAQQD

In experiment [1], `CNC(=O)n1c(C)cc2cc(Nc3ccnc4cc(C(=O)N5CCC[C@@H]5CO)sc34)ccc21` [Example 1a, 5-[2-(2R-Hydroxymethyl-pyrrolidine-1-carbonyl)-thieno[3,2-b]pyridin-7-ylamino]-2-methyl-indole-1-carboxylic acid methylamide] had a Ki of 690 pM and an inhibition at 0.05 µM of 90%. For the same compound, the 50% inhibitory concentration (IC50) in experiment [2] came out at 910 pM.

For `CNC(=O)n1c(C)cc2cc(Nc3ccnc4cc(C(=O)N5CCC[C@@H]5COC)sc34)ccc21` [Example 1b, 5-[2-(2R-Methoxymethyl-pyrrolidine-1-carbonyl)-thieno[3,2-b]pyridin-7-ylamino]-2-methyl-indole-1-carboxylic acid methylamide], in experiment [1], the Ki stood at 960 pM and 0.05 µM produced 88% inhibition. Also, in experiment [2], the IC50 was 690 pM.

In experiment [1], `Cc1cc2cc(Nc3ccnc4cc(C(=O)N5CCC[C@@H]5CO)sc34)ccc2n1C(=O)NC1CC1` [Example 1c, 5-[2-(2R-Hydroxymethyl-pyrrolidine-1-carbonyl)-thieno[3,2-b]pyridin-7-ylamino]-2-methyl-indole-1-carboxylic acid cyclopropylamide] displayed a Ki of 670 pM and an inhibition at 0.05 µM of 98%. Further, the IC50 in experiment [2] came to 700 pM.

As for `Cc1cc2cc(Nc3ccnc4cc(C(=O)N5CC[C@H](O)C5)sc34)ccc2n1C(=O)NC1CC1` [Example 1k, 5-[2-(3S-Hydroxy-pyrrolidine-1-carbonyl)-thieno[3,2-b]pyridin-7-ylamino]-2-methyl-indole-1-carboxylic acid cyclopropylamide], in experiment [1], the Ki is 630 pM and at 0.05 µM the inhibition was 97%.

The compound `CNC(=O)n1c(C)cc2cc(Nc3ccnc4cc(C(=O)N5CC[C@@H](OC)C5)sc34)ccc21` [Example 1l, 5-[2-(3R-Methoxy-pyrrolidine-1-carbonyl)-thieno[3,2-b]pyridin-7-ylamino]-2-methyl-indole-1-carboxylic acid methylamide] showed an inhibition at 0.05 µM in experiment [1] of 94%. Further, the IC50 in experiment [2] was 300 pM.

In experiment [1], `CNC(=O)n1c(C)cc2cc(Nc3ccnc4cc(C(=O)N5CC[C@@H](O)C5)sc34)ccc21` [Example 1n, 5-[2-(3R-Hydroxy-pyrrolidine-1-carbonyl)-thieno[3,2-b]pyridin-7-ylamino]-2-methyl-indole-1-carboxylic acid methylamide] gave an inhibition at 0.05 µM of 94%. Moreover, the IC50 in experiment [2] turned out to be 640 pM.

For `C#CCNC(=O)n1c(C)cc2cc(Nc3ccnc4cc(C(=O)N5CC[C@@H](O)C5)sc34)ccc21` [Example 1o, 5-[2-(3R-Hydroxy-pyrrolidine-1-carbonyl)-thieno[3,2-b]pyridin-7-ylamino]-2-methyl-indole-1-carboxylic acid prop-2-ynylamide], in experiment [1], the inhibition constant Ki is 370 pM and 0.05 µM produced 96% inhibition. The IC50 in experiment [2] was determined as 340 pM.

Take `Cc1cc2cc(Nc3ccnc4cc(-c5nccn5C)sc34)ccc2n1C(=O)NC1CC1` [Example 2d, 5-(2-[1-methyl-1H-imidazol-2-yl]thieno[3,2-b]pyridin-7-ylamino)-2-methylindole-1-carboxylic acid cyclopropylamide]: in experiment [1], the Ki turned out to be 320 pM and the inhibition at 0.05 µM was 98%. In addition, in experiment [2], the IC50 amounted to 150 pM.

In experiment [1], `Cc1cc2cc(Nc3ccnc4cc(C(=O)N5CCC[C@H]5CO)sc34)ccc2n1C(=O)NC1CC1` [Example 2e, 5-(2-[(S)-2-(hydroxymethyl)pyrrolidine-1-carbonyl]thieno[3,2-b]pyridin-7-ylamino)-2-methylindole-1-carboxylic acid cyclopropylamide] returned a Ki of 160 pM and an inhibition at 0.05 µM of 95%. In experiment [2], the IC50 was 500 pM.

In experiment [1], `CNC(=O)n1c(C)cc2cc(Nc3ccnc4cc(-c5nc(C(C)(C)O)cs5)sc34)ccc21` [Example 3a, 5-{2-[4-(1-Hydroxy-1-methyl-ethyl)-thiazol-2-yl]-thieno[3,2-b]pyridin-7-ylamino}-2-methyl-indole-1-carboxylic acid methylamide] yielded an inhibitory constant (Ki) of 450 pM and an inhibition at 0.05 µM of 91%. In addition, the IC50 in experiment [2] stood at 245 pM.

In experiment [1], `Cc1cc2cc(Nc3ccnc4cc(-c5nc(C(C)(C)O)cs5)sc34)ccc2n1C(=O)NC1CC1` [Example 3b, 5-{2-[4-(1-Hydroxy-1-methyl-ethyl)-thiazol-2-yl]-thieno[3,2-b]pyridin-7-ylamino}-2-methyl-indole-1-carboxylic acid cyclopropylamide] had a Ki of 210 pM and an inhibition at 0.05 µM of 95%.

As to `CCOC(=O)c1csc(-c2cc3nccc(Nc4ccc5c(c4)cc(C)n5C(=O)NC)c3s2)n1` [Example 3c, 2-[7-(2-Methyl-1-methylcarbamoyl-1H-indol-5-ylamino)-thieno[3,2-b]pyridin-2-yl]-thiazole-4-carboxylic acid ethyl ester], in experiment [1], affinity was put at a Ki of 790 pM and at 0.05 µM the inhibition was 81%. For the same compound, in experiment [2], the IC50 came out at 2330 pM.

With `CNC(=O)n1c(C)cc2cc(Nc3cccc4cc(C(=O)N5C[C@H](OC)C[C@H]5CO)sc34)ccc21` [Example 3f, 5-[2-((2S,4R)-2-Hydroxymethyl-4-methoxy-pyrrolidine-1-carbonyl)-benzo[b]thiophen-7-ylamino]-2-methyl-indole-1-carboxylic acid methylamide], in experiment [1], the affinity, expressed as Ki, was 10500 pM and at 0.05 µM the inhibition was 57%. Further, the IC50 in experiment [2] was 3990 pM.

In experiment [1], `COC[C@@H]1CCCN1C(=O)c1cc2nccc(Oc3ccc4c(c3)cc(C)n4C(=O)NCC#CCO)c2s1` [Example 4d, 5-(2-[(S)-2-(methoxymethyl)pyrrolidine-1-carbonyl]thieno[3,2-b]pyridin-7-yloxy)-2-methylindole-1-carboxylic acid (4-hydroxybut-2-ynyl)amide] came in with a Ki of 410 pM and an inhibition at 0.05 µM of 91%.

`C#CCNC(=O)n1c(C)cc2c(F)c(Oc3ccnc4cc(C(=O)N5CCC[C@H]5CO)sc34)ccc21` [Example 5e, 4-Fluoro-5-[2-(2S-hydroxymethyl-pyrrolidine-1-carbonyl)-thieno[3,2-b]pyridin-7-yloxy]-2-methyl-indole-1-carboxylic acid prop-2-ynylamide]: in experiment [1], the Ki was found to be 431 pM and the inhibition at 0.05 µM came to 100%.

In experiment [1], `CNC(=O)n1c(C)cc2c(F)c(Oc3ccnc4cc(C(=O)N5CCC[C@H]5CO)sc34)ccc21` [Example 5n, 4-Fluoro-5-[(2-{[(2S)-2-(hydroxymethyl)pyrrolidin-1-yl]carbonyl}thieno[3,2-b]pyridin-7-yl)oxy]-N,2-dimethyl-1H-indole-1-carboxamide] had a Ki of 120 pM and an inhibition at 0.05 µM of 100%.

In experiment [1], `C#CCNC(=O)n1c(C)c(Cl)c2c(F)c(Oc3ccnc4cc(C(=O)N5CC[C@H](O)C5)sc34)ccc21` [Example 6d, 3-Chloro-4-fluoro-5-[2-(3S-hydroxy-pyrrolidine-1-carbonyl)-thieno[3,2-b]pyridin-7-yloxy]-2-methyl-indole-1-carboxylic acid prop-2-ynylamide] yielded a Ki of 320 pM and an inhibition at 0.05 µM of 99%.

In experiment [1], `CNC(=O)n1c(C)cc2cc(Oc3ccnc4cc(C(=O)N5CC[C@H](O)C5)sc34)ccc21` [Example 9g, 5-[2-(3S-Hydroxy-pyrrolidine-1-carbonyl)-thieno[3,2-b]pyridin-7-yloxy]-2-methyl-indole-1-carboxylic acid methylamide] gave a Ki of 243 pM and an inhibition at 0.05 µM of 98%.
